The source of these data is US5045319A, “Transdermal dosage unit, system and process” (Rutgers, The State University of New Jersey, priority 1988, dated 1991).

Each structure is given as a SMILES string.

A short description of data set [1]: in-vivo plasma propranolol after topical application of TMAD on inner pinna of rabbit. The note with it: FIG. A-7, rabbits. On the procedure: (§1) Both in-vitro release and skin permeation studies can then be conducted by mounting the device (with or without skin) onto a Valia-Chien diffusion cell at 37° C. In-vivo studies can be conducted by placing the patch on the pinna (ear) of a rabbit and taking blood samples which can be analyzed for propranolol (results on the attached sheets).

A short description of data set [2]: in-vitro skin permeation of propranolol from TMAD (Valia-Chien diffusion cell, with skin). It counts as in vitro ADME. The note with it: delivered from TMAD. As to the method:
as §1
In this case, the enhancer laminate would be fabricated by combining an aliphatic alcohol with adhesive in a 1.25:10 ratio. The enhancer laminate would then be solvent cast and laminated as in Example 1. The devices can then be evaluated in-vitro and in-vivo. (results shown on the attached sheets).

The nature of data set [3]: in-vitro release of propranolol from multilaminate transdermal device (Valia-Chien diffusion cell, without skin). It counts as physicochemical. The note with it: for RELEASE RATE OF PROPRANOLOL: Example 2, SPE-m-TAD. On the procedure:
as §1
The release rate of drug from the SPE-m-TAD can be changed by the alteration of the drug load in the outer drug laminate.

In the case of `CC(C)NCC(O)COc1cccc2ccccc12` (racemic) [propranolol, Propranolol], the “plasma concentration profiles of propranolol” value in data set [1] (24-hr topical application of TMAD on inner pinna ear) is recorded as “long-acting plasma concentration profiles”. Also, the “systemic bioavailability of propranolol, as shown by plasma levels” value in data set [1] (24-hr topical application of TMAD with various skin permeation enhancers) is “improved the systemic bioavailability, as shown by elevated constant plasma levels”. Besides, the “enhancement in skin permeation rate of propranolol by alkyl alcohols” value in data set [2] (FIG. A-4, dependence on alkyl chain length n of alcohols) was “The rate of skin permeation increases as increasing the alkyl chain length of the alcohols and reaches the maximum level at n=12~14”. Besides, in data set [2] (FIG. A-5, dependence on alkyl chain length n of acids), the “enhancement in skin permeation rate of propranolol by alkanoic acids” value was “The rate of skin permeation shows a sinoidal dependence on the alkyl chain length of the acids and with the maximum rates at n=3 and 16”. Besides, the “enhancement in skin permeation rate of propranolol by esters of Lauric Acid (n=12)” value in data set [2] (FIG. A-6, dependence on alkyl chain length n of esters) was “The rate of skin permeation increases first and then levels off as increasging the alkyl chain length of the esters and reaches the maximum level at n=2”. Moreover, the “RELEASE RATE OF PROPRANOLOL” value in data set [3] (propranolol drug load in outer drug laminate 3%) is 48.1 ug cm^-2 hr^-1; in data set [3] (propranolol drug load in outer drug laminate 5%), 49.9 ug cm^-2 hr^-1; in data set [3] (propranolol drug load in outer drug laminate 7%), 52.2 ug cm^-2 hr^-1; in data set [3] (propranolol drug load in outer drug laminate 20%), 59.1 ug cm^-2 hr^-1. Also, in data set [3] (FIG. A-2, only extremely small particle size (1.5 μm) propranolol crystals in outer laminate layer), the drug release kinetics result is “Device-controlled zero-order drug release kinetics was achieved”. Moreover, the “zero-order release profile of propranolol from TMAD, effect of skin permeation enhancers” value in data set [3] (FIG. A-3, various skin permeation enhancers in contact adhesive polymer coating) is “did not affect the zero-order release profile”. In addition, in data set [3] (SPE-m-TAD, decreasing drug load in outer drug laminate, particle size 1.5 microns), the “overall release of propranolol from the device” value is “can be reduced, while still maintaining zero-order release kinetics”.
